In patent publication US8440638B2, “Compositions and methods for modulating calcium flux, glucose homeostasis and apoptosis” (Wisconsin Alumni Research Foundation, priority 2004, dated 2013):
Blank lines part the entries; values can stand above or below the compound they belong to.

Experiments:
[1] = tested on: TRPM2-expressing HEK-293 cells; assay: Cell viability assay (calcein fluorescence), tet-inducible TRPM2 HEK-293 cells; type: cell-based
Description: Shown are HEK-293 cells (closed diamond) and HEK-293 cells stably transfected with a tet-controlled TRPM2 construct in the presence (open squares) or absence of (open diamonds) tetracycline. […] TRPM2-expressing HEK-293 cells were grown in complete DMEM media and 1 μg/ml tetracycline until 80-90% confluent. One set of cells were re-fed with the same complete media (closed diamonds) and the other set of cells were rinsed with PBS and fed with modified media containing 1 μg/ml tetracycline, 5 mM EGTA and without calcium chloride (open squares). […] HEK-293 (close diamond) and TRPM2 expressing HEK-293 cells in the absence (open diamond) or presence of (closed square) tetracycline were exposed to 0-10 μg/ml cycloheximide for 16 h. Cell viability was determined as described in (a).
TRPM2-expressing HEK-293 cells were exposed to 0-50 μM puromycin for 16 h in the presence (open diamond) or absence (closed diamond) of 500 μM nicotinamide. […] TRPM2-expressing HEK-293 cells were exposed to 0-50 μM puromycin for 16 h in the presence (open diamond) or absence (closed diamond) of 1.5 mM 3-aminobenzamide. Cell survival was determined as described in (a).
HEK-293 and tetracycline (tet)-inducible HEK-293 TRPM2-expressing cells (23) were cultured in DMEM and 10% FBS at 37° C., 5% CO2. Media used to culture tet-inducible HEK-293 cells was supplemented with blasticidin (5 μg ml^−1; Invitrogen) and zeocin (0.4 mg/ml; Invitrogen). To induce expression of TRPM2 in recombinant HEK-293 cells, tetracycline was added to the media at 1 μg ml^−1 (Invitrogen) 24 h prior to experiments. The CRI-G1 rat β-islet tumor cell line was obtained from EACC and cultured in DMEM, 10% FBS and 2 mM glutamine.
HEK-293, tet-inducible HEK-293, and CRI-G1 cells were seeded into 6 well plates at a density of 500,000 cells per well. When cells were 50-70% confluent, puromycin was added to the media at various concentrations for 16 hours. Cell monolayers were rinsed with PBS, after which 0.5 ml of 2 μM calcein in PBS was added directly to the well for 10-20 minutes. Calcein is retained in living, but not dead cells, where it undergoes catalytic conversion into a fluorescent compound Fluorescence in each well was measured in a microplate reader using excitation and emission filters at 485/530 nm, respectively.

[2] = tested on: CRI-G1 cells; assay: Cell viability assay (calcein fluorescence), CRI-G1 cells; type: cell-based, rat; conditions: 0.5-20 mM nicotinamide, 20 μM puromycin, 16 h
Description: FIG. 4 a) OAADPr gates the endogenous TRPM2 channel in CRI-G1 cells. Left panel: Evolution of currents in CRI-G1 cells in the absence (grey squares) or presence (black circles) of OAADPr (120-250 μM). Shown are average leak subtracted currents from n=3 cells for each condition. Right panel: Representative leak subtracted whole cell I/V curves for peak currents observed in the absence (grey line) and presence (black line) of OAADPr. For the above measurements, CRI-G1 cells were maintained in the whole cell patch clamp configuration as previously described for HEK-293 cells (44). b) Puromycin leads to cell death in CRI-G1 cells. CRI-G1 cells were treated with 0-40 μM puromycin for 16 h. Cell viability was assessed by measuring fluorescence of calcein in live cells. Data obtained from 4 independent experiments were plotted as a percent change in fluorescence compared to those of untreated cells set at a 100%. Error bars indicate the standard deviation from the mean. (Inset) Nicotinamide rescues puromycin-induced death in CRI-G1 cells. […] Cell viability was assessed 16 h later as described above. […] Calcein is retained in living, but not dead cells, where it undergoes catalytic conversion into a fluorescent compound Fluorescence in each well was measured in a microplate reader using excitation and emission filters at 485/530 nm, respectively.

[3] = tested on: Sir2 homologs; assay: NAD+-dependent histone deacetylase activity of HEK-293 protein extracts; type: biochemical; conditions: data not shown
[4] = tested on: insulin-producing β-cells; conditions: prophylactic treatment; alloxan and streptozotocin models (ref. 48); cited from earlier work
[5] = Spontaneous breakdown of OAADPr in the patch pipette; type: physicochemical; conditions: multiple experiments
Description: (§1) Patch clamp electrophysiology was performed as previously described (23). Briefly, cells were patch clamped in the whole cell configuration at 25° C. using pipettes with resistances ranging from 2-3 MOhms. Currents were recorded on an EPC9 patch clamp amplifier with automatic capacitance compensation using a protocol generating a 50 msec voltage ramp from −100 to +100 mv every two seconds at a holding potential of 0 mv (appropriately corrected for liquid junction potential). Bath solution included 150 mM NaCl, 2.8 mM KCl, 5 mM CsCl, 1 mM CaCl2, 2 mM MgCl2, and 10 mM Hepes (pH 7.2). Pipette solution included 135 mM CsGlutamate, 1 mM MgCl2, 8 mM NaCl, 10 mM Hepes (pH 7.2), and 10 mM EGTA. For low-resolution presentation of current development over the course of the experiment, instantaneous currents at −80 mv were extracted from each ramp and plotted versus time.

[6] = target: T1, endogenous TRPM2 channel (Rattus norvegicus, UniProt E9PTA2); assay: Whole cell patch clamp, endogenous TRPM2 channel in CRI-G1 cells; type: cell-based; conditions: OAADPr 120-250 μM in patch pipette, n=3 cells
T1 construct: direct OAADPr-mediated gating of endogenous TRPM2 channels in CRI-G1 cells; endogenous in cells; host or cells: CRI-G1 rat beta-islet tumor cell line
T1 sequence (E9PTA2 whole entry): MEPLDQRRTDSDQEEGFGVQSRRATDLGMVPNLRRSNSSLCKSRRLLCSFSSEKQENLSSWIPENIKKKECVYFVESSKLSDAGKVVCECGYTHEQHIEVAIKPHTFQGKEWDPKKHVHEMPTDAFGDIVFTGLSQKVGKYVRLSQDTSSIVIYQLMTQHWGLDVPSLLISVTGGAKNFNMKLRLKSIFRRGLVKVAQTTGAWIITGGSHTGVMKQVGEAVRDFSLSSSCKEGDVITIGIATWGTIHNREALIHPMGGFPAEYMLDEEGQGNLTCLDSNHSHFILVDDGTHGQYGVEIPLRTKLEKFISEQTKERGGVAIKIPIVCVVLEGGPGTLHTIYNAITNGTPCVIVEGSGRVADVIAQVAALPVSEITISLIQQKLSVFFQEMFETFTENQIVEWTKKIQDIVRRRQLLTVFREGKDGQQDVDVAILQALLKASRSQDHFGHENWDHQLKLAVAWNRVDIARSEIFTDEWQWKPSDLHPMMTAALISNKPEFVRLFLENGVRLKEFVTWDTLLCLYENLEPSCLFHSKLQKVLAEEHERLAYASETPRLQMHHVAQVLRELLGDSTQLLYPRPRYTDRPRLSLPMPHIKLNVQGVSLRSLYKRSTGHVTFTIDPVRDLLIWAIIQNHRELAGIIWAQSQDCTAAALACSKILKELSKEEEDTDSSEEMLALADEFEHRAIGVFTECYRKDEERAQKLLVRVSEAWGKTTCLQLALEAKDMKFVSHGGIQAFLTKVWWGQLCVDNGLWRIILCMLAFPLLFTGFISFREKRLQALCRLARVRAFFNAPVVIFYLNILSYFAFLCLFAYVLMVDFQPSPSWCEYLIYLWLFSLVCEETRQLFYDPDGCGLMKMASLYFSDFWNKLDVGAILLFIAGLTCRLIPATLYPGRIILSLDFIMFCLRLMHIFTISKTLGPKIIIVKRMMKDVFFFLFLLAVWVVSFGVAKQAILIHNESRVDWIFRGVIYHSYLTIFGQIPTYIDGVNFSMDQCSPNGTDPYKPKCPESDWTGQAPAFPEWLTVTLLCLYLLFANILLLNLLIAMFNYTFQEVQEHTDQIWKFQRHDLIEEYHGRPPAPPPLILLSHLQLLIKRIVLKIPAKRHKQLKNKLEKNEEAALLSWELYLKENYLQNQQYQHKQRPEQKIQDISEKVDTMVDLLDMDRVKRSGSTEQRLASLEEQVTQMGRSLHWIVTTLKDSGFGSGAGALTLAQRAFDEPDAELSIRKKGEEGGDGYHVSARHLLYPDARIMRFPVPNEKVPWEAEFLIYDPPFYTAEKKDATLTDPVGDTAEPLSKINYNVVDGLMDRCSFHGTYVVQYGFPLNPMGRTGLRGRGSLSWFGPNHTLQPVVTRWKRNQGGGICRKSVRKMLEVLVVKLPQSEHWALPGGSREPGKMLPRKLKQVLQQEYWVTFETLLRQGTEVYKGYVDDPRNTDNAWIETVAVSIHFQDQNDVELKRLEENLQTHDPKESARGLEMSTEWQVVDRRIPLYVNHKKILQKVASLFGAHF
Description: FIG. 4 a) OAADPr gates the endogenous TRPM2 channel in CRI-G1 cells. Left panel: Evolution of currents in CRI-G1 cells in the absence (grey squares) or presence (black circles) of OAADPr (120-250 μM). Shown are average leak subtracted currents from n=3 cells for each condition. Right panel: Representative leak subtracted whole cell I/V curves for peak currents observed in the absence (grey line) and presence (black line) of OAADPr. For the above measurements, CRI-G1 cells were maintained in the whole cell patch clamp configuration as previously described for HEK-293 cells (44). b) Puromycin leads to cell death in CRI-G1 cells. CRI-G1 cells were treated with 0-40 μM puromycin for 16 h. Cell viability was assessed by measuring fluorescence of calcein in live cells. Data obtained from 4 independent experiments were plotted as a percent change in fluorescence compared to those of untreated cells set at a 100%. Error bars indicate the standard deviation from the mean. […] Cell viability was assessed 16 h later as described above. […]
Patch clamp electrophysiology was performed as previously described (23). […] Currents were recorded on an EPC9 patch clamp amplifier with automatic capacitance compensation using a protocol generating a 50 msec voltage ramp from −100 to +100 mv every two seconds at a holding potential of 0 mv (appropriately corrected for liquid junction potential). […]

[7] = target: T2, TRPM2 channel (Homo sapiens, UniProt O94759); assay: Whole cell patch clamp, TRPM2 channel gating in tet-induced TRPM2-expressing HEK-293 cells; type: cell-based; conditions: OAADPr in patch pipette solution; similar kinetics and dose dependence to ADP-ribose
T2 construct: expressed in transfected cells; host or cells: tetracycline-inducible HEK-293
T2 sequence (O94759 whole entry): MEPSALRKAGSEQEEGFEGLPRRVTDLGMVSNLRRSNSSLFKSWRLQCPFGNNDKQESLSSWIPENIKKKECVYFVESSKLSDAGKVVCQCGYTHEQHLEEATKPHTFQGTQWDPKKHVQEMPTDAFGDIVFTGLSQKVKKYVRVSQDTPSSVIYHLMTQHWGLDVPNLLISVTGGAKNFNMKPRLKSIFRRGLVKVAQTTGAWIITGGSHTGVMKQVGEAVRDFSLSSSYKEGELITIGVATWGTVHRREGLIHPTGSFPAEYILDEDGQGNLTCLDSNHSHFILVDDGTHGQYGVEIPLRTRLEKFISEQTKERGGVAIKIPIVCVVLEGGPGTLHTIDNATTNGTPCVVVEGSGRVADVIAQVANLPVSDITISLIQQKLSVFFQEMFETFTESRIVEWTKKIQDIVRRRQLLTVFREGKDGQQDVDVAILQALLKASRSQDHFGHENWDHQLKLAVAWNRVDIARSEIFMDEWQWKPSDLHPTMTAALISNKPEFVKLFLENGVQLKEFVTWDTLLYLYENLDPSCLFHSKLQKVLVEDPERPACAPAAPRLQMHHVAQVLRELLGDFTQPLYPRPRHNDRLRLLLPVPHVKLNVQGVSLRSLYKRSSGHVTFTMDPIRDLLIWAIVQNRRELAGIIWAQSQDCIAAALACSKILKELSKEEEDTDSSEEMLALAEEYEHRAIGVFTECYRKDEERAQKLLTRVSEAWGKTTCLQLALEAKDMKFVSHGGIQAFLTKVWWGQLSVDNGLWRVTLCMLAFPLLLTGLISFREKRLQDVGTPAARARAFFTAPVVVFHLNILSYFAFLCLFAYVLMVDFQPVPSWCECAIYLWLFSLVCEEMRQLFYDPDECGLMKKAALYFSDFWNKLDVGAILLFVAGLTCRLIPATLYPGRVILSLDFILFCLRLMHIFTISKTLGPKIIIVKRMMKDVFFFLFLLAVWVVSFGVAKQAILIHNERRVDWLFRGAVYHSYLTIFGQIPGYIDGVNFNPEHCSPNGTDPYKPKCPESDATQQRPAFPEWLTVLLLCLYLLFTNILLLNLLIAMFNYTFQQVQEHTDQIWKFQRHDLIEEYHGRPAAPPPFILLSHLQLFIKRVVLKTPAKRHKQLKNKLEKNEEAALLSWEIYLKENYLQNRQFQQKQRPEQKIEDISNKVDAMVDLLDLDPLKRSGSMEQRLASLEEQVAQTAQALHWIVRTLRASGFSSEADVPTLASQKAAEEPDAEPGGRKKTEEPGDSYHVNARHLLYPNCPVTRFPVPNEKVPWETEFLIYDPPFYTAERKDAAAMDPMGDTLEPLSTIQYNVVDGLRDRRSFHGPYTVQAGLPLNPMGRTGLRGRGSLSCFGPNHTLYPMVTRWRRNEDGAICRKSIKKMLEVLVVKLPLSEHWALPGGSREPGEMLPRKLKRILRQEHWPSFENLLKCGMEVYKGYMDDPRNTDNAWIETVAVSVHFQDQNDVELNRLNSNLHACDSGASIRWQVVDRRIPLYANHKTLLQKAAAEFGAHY
Description: Shown is the development of whole cell currents over time in TRPM2-expressing HEK-293 cells. Bath solution was standard ringer's, and pipette solution was Cs-based and included 10 mM EGTA to buffer intracellular Ca^2+ to 10 nM. The patch pipette contained various concentrations of (FIG. 1a) ADPr, (FIG. 1b) OAADPr (FIG. 1c) OAADPr and puromycin as indicated in the figure. FIG. 1d.) Cytoplasmic OAADPr esterase activity is inhibited by puromycin. 200 μM O-[^3H]AADPr and 0-100 μM puromycin were added to cytoplasmic HEK-293 extract for 30 min. Percent hydrolysis of O-[^3H]AADPr to [^3H]acetate was measured as described hereinbelow. FIG. 1e.) Nuclear OAADPr acetyltransferase activity is not inhibited by puromycin. HEK-293 nuclear extract was incubated with 200 μM O-[^3H]AADPr in the presence or absence of 100 μM puromycin for 60 min. The reactions were quenched and resolved by HPLC. The radioactivity in collected fractions was determined by liquid scintillation counting. FIGS. 1f-g.) In vivo detection of OAADPr. Mass spectrum of HEK-293 generated OAADPr (peak m/z of 602.0894; the theoretical m/z for OAADPr is 602.0895) after puromycin treatment, with authentic [^13C]-OAADPr (peak m/z of 603.0851 and isotopic distribution of 604.0878 and 605.0928) as a standard. Peak 599.3691 is from the matrix.
as §1, with “For low-resolution presentation of current development over the course of the experiment, instantaneous currents at −80 mv were extracted from each ramp and plotted versus time.” left out

Compound: NC(=O)c1cccc(N)c1 [3-aminobenzamide]
effect on puromycin-induced cell death ([1]; 1.5 mM 3-aminobenzamide, 0-50 μM puromycin, 16 h): no effect

Compound: C[C@@H]1C[C@@H]([C@H](O)CC2CC(=O)NC(=O)C2)C(=O)[C@@H](C)C1 [cycloheximide]
sensitivity of TRPM2 expressing cells to cycloheximide vs cells not over-expressing the channel ([1]; 0-10 μg/ml cycloheximide, 16 h): no significant increased sensitivity

NAD+-dependent histone deacetylase activity of protein extracts [3]: inhibited
Compound: NC(=O)c1cccnc1 [nicotinamide]
effect on puromycin-induced death of CRI-G1 cells [2]: blocked
protection from puromycin-induced cell death at high puromycin ([1]; 500 μM nicotinamide, 50 μM puromycin): suppressed
protection from puromycin-induced cell death ([1]; 500 μM nicotinamide, up to 20 μM puromycin, 16 h): completely protect
development of diabetes [4]: suppress the development of diabetes

spontaneous breakdown of OAADPr to ADPr in the patch pipette [5]: 5-10%
average currents induced [6]: ~2 nA
TRPM2 gating in whole cell recordings [7]: induces TRPM2 gating
Compound: O-acetyl-ADP ribose [OAADPr]
